In ChEMBL document CHEMBL2021851, “Synthesis and SAR studies of imidazo-[1,2-a]-pyrazine Aurora kinase inhibitors with improved off-target kinase selectivity” (Bioorg Med Chem Lett, 2012):

Experiments:
Aurora kinase A = molecular target: T1, Aurora kinase A (Homo sapiens, UniProt O14965); test: Inhibition of aurora A kinase using 5TAMRA-GRTGRRNSICOOH as substrate by fluorescent assay
T1 sequence (O14965 whole entry): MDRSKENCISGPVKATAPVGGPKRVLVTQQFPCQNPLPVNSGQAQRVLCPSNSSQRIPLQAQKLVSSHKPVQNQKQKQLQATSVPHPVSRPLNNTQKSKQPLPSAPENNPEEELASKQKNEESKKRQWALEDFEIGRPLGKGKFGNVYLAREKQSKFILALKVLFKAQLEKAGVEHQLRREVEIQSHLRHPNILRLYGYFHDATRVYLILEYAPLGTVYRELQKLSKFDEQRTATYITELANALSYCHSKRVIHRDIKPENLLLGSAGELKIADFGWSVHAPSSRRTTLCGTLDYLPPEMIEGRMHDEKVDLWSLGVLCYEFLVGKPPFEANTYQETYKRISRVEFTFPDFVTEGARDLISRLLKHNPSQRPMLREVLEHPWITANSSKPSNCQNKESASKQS

Aurora kinase B [1] = molecular target: T2, Aurora kinase B (Homo sapiens, UniProt Q96GD4); test: Inhibition of aurora B kinase using 5TAMRA-GRTGRRNSICOOH as substrate by fluorescent assay
T2 sequence (Q96GD4 whole entry): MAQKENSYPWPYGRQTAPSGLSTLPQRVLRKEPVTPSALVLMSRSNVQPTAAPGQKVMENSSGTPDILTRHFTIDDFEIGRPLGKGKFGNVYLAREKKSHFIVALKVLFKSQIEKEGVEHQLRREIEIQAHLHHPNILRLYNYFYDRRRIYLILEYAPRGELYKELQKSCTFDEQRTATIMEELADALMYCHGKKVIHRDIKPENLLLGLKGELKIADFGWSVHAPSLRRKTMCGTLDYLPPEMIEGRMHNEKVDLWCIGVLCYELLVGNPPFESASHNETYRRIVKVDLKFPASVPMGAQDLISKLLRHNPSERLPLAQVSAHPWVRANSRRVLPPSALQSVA

Aurora kinase B [2] = molecular target: T2, Aurora kinase B; test: Inhibition of aurora B kinase in human HCT116 cells assessed as inhibition of histone H3 phosphorylation incubated for 1 hr by Hoechst 33342 staining based microscopic analysis; type: cell-based, HCT-116
[3] = molecular target: Vascular endothelial growth factor receptor 2 (Homo sapiens, UniProt P35968); test: Inhibition of VEGFR2
Sequence of Vascular endothelial growth factor receptor 2 (P35968 whole entry): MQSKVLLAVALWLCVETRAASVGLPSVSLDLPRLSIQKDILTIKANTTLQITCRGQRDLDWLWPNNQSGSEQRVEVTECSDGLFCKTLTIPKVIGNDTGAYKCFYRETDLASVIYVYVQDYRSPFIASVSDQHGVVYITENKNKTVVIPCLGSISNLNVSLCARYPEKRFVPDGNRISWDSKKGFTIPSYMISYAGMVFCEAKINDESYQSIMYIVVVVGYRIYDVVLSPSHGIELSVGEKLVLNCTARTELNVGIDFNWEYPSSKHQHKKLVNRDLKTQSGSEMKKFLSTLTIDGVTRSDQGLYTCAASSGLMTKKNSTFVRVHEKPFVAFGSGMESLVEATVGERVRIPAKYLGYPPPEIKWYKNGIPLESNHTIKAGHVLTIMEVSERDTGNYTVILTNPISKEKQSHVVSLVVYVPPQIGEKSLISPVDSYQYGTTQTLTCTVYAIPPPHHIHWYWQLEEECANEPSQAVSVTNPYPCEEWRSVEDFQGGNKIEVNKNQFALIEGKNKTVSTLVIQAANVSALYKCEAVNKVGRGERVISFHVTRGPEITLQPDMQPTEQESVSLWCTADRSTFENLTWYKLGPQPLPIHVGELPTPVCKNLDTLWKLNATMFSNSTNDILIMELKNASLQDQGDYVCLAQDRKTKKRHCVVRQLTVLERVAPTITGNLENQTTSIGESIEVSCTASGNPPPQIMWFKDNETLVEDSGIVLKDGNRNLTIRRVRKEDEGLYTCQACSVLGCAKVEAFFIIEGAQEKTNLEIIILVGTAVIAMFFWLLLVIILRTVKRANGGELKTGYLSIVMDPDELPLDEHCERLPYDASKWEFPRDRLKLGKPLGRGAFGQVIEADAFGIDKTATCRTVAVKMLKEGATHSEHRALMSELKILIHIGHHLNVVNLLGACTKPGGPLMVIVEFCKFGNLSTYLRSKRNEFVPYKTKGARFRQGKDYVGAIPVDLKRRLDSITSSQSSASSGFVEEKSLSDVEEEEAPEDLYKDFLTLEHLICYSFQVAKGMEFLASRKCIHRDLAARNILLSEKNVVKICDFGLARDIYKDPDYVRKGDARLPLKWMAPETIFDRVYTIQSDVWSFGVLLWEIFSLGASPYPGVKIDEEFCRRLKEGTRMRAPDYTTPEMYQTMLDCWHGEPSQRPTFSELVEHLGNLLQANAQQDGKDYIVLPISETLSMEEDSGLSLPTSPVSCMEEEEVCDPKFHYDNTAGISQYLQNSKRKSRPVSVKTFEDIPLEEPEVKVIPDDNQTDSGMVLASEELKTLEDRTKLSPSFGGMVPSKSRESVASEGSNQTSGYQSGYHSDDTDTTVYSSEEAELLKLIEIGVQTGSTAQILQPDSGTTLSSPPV

[4] = molecular target: Tyrosine-protein kinase Lck (Homo sapiens, UniProt P06239); test: Inhibition of LCK
Sequence of Tyrosine-protein kinase Lck (P06239 whole entry): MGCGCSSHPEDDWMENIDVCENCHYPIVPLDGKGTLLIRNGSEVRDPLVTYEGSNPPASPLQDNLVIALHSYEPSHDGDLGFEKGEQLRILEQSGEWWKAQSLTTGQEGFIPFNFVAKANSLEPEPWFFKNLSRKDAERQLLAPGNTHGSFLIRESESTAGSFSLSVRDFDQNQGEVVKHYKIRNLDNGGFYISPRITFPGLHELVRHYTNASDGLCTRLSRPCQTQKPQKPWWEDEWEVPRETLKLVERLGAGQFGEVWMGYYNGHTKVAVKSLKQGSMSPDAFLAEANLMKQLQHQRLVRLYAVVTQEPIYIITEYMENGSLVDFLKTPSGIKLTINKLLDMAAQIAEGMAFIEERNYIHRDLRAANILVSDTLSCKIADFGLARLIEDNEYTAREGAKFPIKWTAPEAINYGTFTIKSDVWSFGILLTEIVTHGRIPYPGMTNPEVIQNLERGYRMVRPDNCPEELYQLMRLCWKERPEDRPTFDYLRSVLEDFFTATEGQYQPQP

[5] = molecular target: T3, Serine/threonine-protein kinase Chk1 (Homo sapiens, UniProt O14757); test: Inhibition of Chk1
T3 sequence (O14757 whole entry): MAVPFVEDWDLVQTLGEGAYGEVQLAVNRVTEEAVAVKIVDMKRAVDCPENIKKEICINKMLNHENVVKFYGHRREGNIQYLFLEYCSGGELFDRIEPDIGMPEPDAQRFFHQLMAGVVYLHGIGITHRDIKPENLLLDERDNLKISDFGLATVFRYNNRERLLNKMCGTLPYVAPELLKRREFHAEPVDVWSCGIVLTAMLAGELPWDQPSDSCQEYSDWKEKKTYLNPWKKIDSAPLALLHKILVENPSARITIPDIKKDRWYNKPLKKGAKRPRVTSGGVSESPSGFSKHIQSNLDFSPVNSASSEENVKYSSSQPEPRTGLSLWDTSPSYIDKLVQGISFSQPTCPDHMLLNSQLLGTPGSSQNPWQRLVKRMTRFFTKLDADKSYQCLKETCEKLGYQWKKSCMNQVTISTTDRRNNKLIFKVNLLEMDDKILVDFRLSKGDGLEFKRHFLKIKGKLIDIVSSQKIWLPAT

[6] = molecular target: T4, Interleukin-1 receptor-associated kinase 4 (Homo sapiens, UniProt Q9NWZ3); test: Inhibition of IRAK4
T4 sequence (Q9NWZ3 whole entry): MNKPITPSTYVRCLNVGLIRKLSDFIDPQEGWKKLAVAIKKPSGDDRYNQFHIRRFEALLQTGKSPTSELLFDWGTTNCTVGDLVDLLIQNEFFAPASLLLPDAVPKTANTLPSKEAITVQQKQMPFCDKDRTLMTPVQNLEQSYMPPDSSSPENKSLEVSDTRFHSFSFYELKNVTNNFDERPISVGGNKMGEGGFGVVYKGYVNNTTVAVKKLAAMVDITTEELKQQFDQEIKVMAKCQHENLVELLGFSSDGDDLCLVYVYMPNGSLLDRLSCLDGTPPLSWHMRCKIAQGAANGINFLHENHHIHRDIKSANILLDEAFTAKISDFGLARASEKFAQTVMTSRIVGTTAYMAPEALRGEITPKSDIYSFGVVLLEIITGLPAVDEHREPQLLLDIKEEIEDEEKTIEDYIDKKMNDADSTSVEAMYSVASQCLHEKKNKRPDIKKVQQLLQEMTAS

[7] = molecular target: Ribosomal protein S6 kinase alpha-3 (Homo sapiens, UniProt P51812); test: Inhibition of RSK2
Sequence of Ribosomal protein S6 kinase alpha-3 (P51812 whole entry): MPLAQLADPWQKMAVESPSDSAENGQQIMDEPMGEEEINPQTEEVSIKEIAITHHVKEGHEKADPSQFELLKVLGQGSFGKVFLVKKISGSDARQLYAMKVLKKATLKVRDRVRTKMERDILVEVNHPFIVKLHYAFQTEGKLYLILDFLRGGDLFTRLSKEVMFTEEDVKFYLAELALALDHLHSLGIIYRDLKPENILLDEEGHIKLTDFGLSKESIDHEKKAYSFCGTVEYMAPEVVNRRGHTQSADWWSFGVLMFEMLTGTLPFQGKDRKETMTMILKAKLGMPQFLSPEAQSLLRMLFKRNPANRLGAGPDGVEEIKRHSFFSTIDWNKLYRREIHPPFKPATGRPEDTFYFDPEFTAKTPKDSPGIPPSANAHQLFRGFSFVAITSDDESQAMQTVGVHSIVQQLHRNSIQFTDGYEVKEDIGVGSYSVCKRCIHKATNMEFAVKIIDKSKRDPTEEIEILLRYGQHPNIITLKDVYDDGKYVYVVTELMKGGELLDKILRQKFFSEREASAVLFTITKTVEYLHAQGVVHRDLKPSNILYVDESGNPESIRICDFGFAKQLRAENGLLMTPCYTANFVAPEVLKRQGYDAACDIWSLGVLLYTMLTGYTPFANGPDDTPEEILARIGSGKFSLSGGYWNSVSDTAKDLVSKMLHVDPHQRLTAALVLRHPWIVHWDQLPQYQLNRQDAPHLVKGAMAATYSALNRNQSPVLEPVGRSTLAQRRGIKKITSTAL

IC50 (Aurora kinase A) [nM]	IC50 (Aurora kinase B [1]) [nM]	EC50 (Aurora kinase B [2]) [nM]	IC50 [3] [nM]	IC50 [4] [nM]	IC50 [5] [nM]	IC50 [6] [nM]	IC50 [7] [nM]	Compound
≤ 4	≤ 13	50	4	12	20	56	360	Cc1cn2c(-c3cn[nH]c3)cnc2c(Nc2cc(CN3CCCCC3)ns2)n1
1830	363							Cc1cn2c(-c3cnn(CC(=O)O)c3)cnc2c(Nc2cc(CN3CCCCC3)ns2)n1
836	146							Cc1cn2c(-c3cnn(CC(=O)O)c3)cnc2c(Nc2cc(CN3CCCC(C)C3)ns2)n1 (stereo unspecified)
1570	28	> 1000						Cc1cn2c(-c3cnn(CC(N)=O)c3)cnc2c(Nc2cc(CN3CCCCC3)ns2)n1
> 3000	193							CNC(=O)Cn1cc(-c2cnc3c(Nc4cc(CN5CCCCC5)ns4)nc(C)cn23)cn1
1800	44	> 1000						Cc1cn2c(-c3cnn(CC(=O)NCCC(C)C)c3)cnc2c(Nc2cc(CN3CCCCC3)ns2)n1
> 3000	> 3000							Cc1cn2c(-c3cnn(CC(=O)N(C)C)c3)cnc2c(Nc2cc(CN3CCCCC3)ns2)n1
> 3000	761							Cc1cn2c(-c3cnn(CC(=O)NCCN(C)C)c3)cnc2c(Nc2cc(CN3CCCC(C)C3)ns2)n1 (stereo unspecified)
> 3000	> 3000							Cc1cn2c(-c3cnn(CC(=O)N4CCOCC4)c3)cnc2c(Nc2cc(CN3CCCCC3)ns2)n1
21	≤ 13	129						Cc1cn2c(-c3cnn(CC(=O)NCc4ccccc4)c3)cnc2c(Nc2cc(CN3CCCC(C)C3)ns2)n1 (stereo unspecified)
34	51	327						Cc1cn2c(-c3cnn(CC(=O)Nc4ccccc4)c3)cnc2c(Nc2cc(CN3CCCC(C)C3)ns2)n1 (stereo unspecified)
1630	261							Cc1cn2c(-c3cnn(CC(=O)N(C)Cc4ccccc4)c3)cnc2c(Nc2cc(CN3CCCC(C)C3)ns2)n1 (stereo unspecified)
18	≤ 13	534						Cc1cn2c(-c3cnn(Cc4nc5ccccc5[nH]4)c3)cnc2c(Nc2cc(CN3CCCC(C)C3)ns2)n1 (stereo unspecified)
≤ 4	≤ 13	> 1000						Cc1cn2c(-c3cnn(Cc4nc(-c5ccccc5)no4)c3)cnc2c(Nc2cc(CN3CCCCC3)ns2)n1
2450	1110							Cc1cn2c(-c3cnn(CC(=O)NCc4ccncc4)c3)cnc2c(Nc2cc(CN3CCCC(C)C3)ns2)n1 (stereo unspecified)
168	178							Cc1cn2c(-c3cnn(CC(=O)NCc4ncco4)c3)cnc2c(Nc2cc(CN3CCCC(C)C3)ns2)n1 (stereo unspecified)
213	70							Cc1cn2c(-c3cnn(CC(=O)NCc4ccco4)c3)cnc2c(Nc2cc(CN3CCCC(C)C3)ns2)n1 (stereo unspecified)
27	≤ 13	193	234	579	300	873	7700	Cc1cn2c(-c3cnn(CC(=O)NCc4cccs4)c3)cnc2c(Nc2cc(CN3CCCC(C)C3)ns2)n1 (stereo unspecified)
198	35	388						Cc1cn2c(-c3cnn(CC(=O)Nc4ccccc4F)c3)cnc2c(Nc2cc(CN3CCCCC3)ns2)n1
340	≤ 13	892						Cc1cn2c(-c3cnn(CC(=O)Nc4cccc(F)c4)c3)cnc2c(Nc2cc(CN3CCCCC3)ns2)n1
53	30	412						Cc1cn2c(-c3cnn(CC(=O)Nc4ccc(F)cc4)c3)cnc2c(Nc2cc(CN3CCCCC3)ns2)n1
122	≤ 13	58	481	> 3000	20	1420	4300	Cc1cn2c(-c3cnn(CC(=O)Nc4cccc(F)c4F)c3)cnc2c(Nc2cc(CN3CCCCC3)ns2)n1

IC50 (Aurora kinase A) [nM]	IC50 (Aurora kinase B [1]) [nM]	EC50 (Aurora kinase B [2]) [nM]	IC50 [3] [nM]	IC50 [4] [nM]	IC50 [5] [nM]	IC50 [6] [nM]	IC50 [7] [nM]	Compound
1220	94	2380						Cc1cn2c(-c3cnn(CC(=O)Nc4cc(F)cc(F)c4)c3)cnc2c(Nc2cc(CN3CCCCC3)ns2)n1
100	≤ 13	> 1000						Cc1cn2c(-c3cnn(CC(=O)Nc4nccs4)c3)cnc2c(Nc2cc(CN3CCCC(C)C3)ns2)n1 (stereo unspecified)
638	45	951						Cc1cn2c(-c3cnn(CC(=O)Nc4cccnn4)c3)cnc2c(Nc2cc(CN3CCCC(C)C3)ns2)n1 (stereo unspecified)
185	32	285						Cc1cn2c(-c3cnn(CC(=O)Nc4ccccn4)c3)cnc2c(Nc2cc(CN3CCCC(C)C3)ns2)n1 (stereo unspecified)
186	118							Cc1cn2c(-c3cnn(CC(=O)Nc4cccnc4)c3)cnc2c(Nc2cc(CN3CCCC(C)C3)ns2)n1 (stereo unspecified)
68	91	402						Cc1cn2c(-c3cnn(CC(=O)Nc4cc[n+]([O-])cc4)c3)cnc2c(Nc2cc(CN3CCCC(C)C3)ns2)n1 (stereo unspecified)
239	282							Cc1cn2c(-c3cnn(CC(=O)Nc4ccncc4O)c3)cnc2c(Nc2cc(CN3CCCC(C)C3)ns2)n1 (stereo unspecified)
102	28	164						Cc1cn2c(-c3cnn(CC(=O)Nc4cccc(F)n4)c3)cnc2c(Nc2cc(CN3CCCC(C)C3)ns2)n1 (stereo unspecified)
753	81	110						Cc1cn2c(-c3cnn(CC(=O)Nc4cccnc4F)c3)cnc2c(Nc2cc(CN3CCCC(C)C3)ns2)n1 (stereo unspecified)
≤ 4	≤ 13	> 1000						Cc1cn2c(-c3cnn(Cc4noc(-c5ccccc5)n4)c3)cnc2c(Nc2cc(CN3CCCCC3)ns2)n1
583	21	887						Cc1cn2c(-c3cnn(Cc4nc(-c5ccccc5)c[nH]4)c3)cnc2c(Nc2cc(CN3CCCCC3)ns2)n1
44	≤ 13	469						Cc1cn2c(-c3cnn(CC(=O)NCc4ccccc4F)c3)cnc2c(Nc2cc(CN3CCCCC3)ns2)n1
30	≤ 13	234						Cc1cn2c(-c3cnn(CC(=O)NCc4cccc(F)c4)c3)cnc2c(Nc2cc(CN3CCCCC3)ns2)n1
40	≤ 13	416						Cc1cn2c(-c3cnn(CC(=O)NCc4ccc(F)cc4)c3)cnc2c(Nc2cc(CN3CCCCC3)ns2)n1
45	≤ 13	870						Cc1cn2c(-c3cnn(CC(=O)NCc4cccc(F)c4F)c3)cnc2c(Nc2cc(CN3CCCCC3)ns2)n1
22	≤ 13	389						Cc1cn2c(-c3cnn(CC(=O)NCc4cc(F)cc(F)c4)c3)cnc2c(Nc2cc(CN3CCCCC3)ns2)n1
413	35	> 1000						Cc1cn2c(-c3cnn(CC(=O)NCc4cccc(C(F)(F)F)c4)c3)cnc2c(Nc2cc(CN3CCCC(C)C3)ns2)n1 (stereo unspecified)
> 3000	175							Cc1cn2c(-c3cnn(CC(=O)NCc4ccc(C(F)(F)F)cc4)c3)cnc2c(Nc2cc(CN3CCCC(C)C3)ns2)n1 (stereo unspecified)
859	155							Cc1cn2c(-c3cnn(CC(=O)NCc4cccc(N(C)C)c4)c3)cnc2c(Nc2cc(CN3CCCC(C)C3)ns2)n1 (stereo unspecified)
57	41	442						COc1cccc(CNC(=O)Cn2cc(-c3cnc4c(Nc5cc(CN6CCCC(C)C6)ns5)nc(C)cn34)cn2)c1 (stereo unspecified)
1930	161							COc1ccc(CNC(=O)Cn2cc(-c3cnc4c(Nc5cc(CN6CCCC(C)C6)ns5)nc(C)cn34)cn2)cc1 (stereo unspecified)
434	439							Cc1cn2c(-c3cnn(CC(=O)NCc4cccnc4)c3)cnc2c(Nc2cc(CN3CCCC(C)C3)ns2)n1 (stereo unspecified)
